Reference: patent publication US20260109721A1, “IONIZABLE CATIONIC LIPIDS INCORPORATING SILICON: SYNTHESIS AND LNP FORMULATION” (priority 2023, published 2026)

How the values were obtained:
[1] = Encapsulation efficiency of loaded LNPs, RiboGreen RNA assay (Method A); assay type: physicochemical; settings: encapsulation efficiency of mRNA-loaded LNP, Method A, RiboGreen
Procedure, shortened: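 mRNA-LNP samples diluted in TE buffer (~4-7 μg/mL RNA) and plated in duplicate with TE or Triton X-100 buffer, then 10 min at 37° C to lyse particles. RiboGreen (1:100 in TE pH 7.5) added after cooling; fluorescence ex 480/em 525, mRNA quantified against RNA standard curve.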

HeLa cells = test: Cell viability assessment with resazurin assay (Method A); assay type: cell-based; settings: human
Procedure, shortened: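 HeLa cells after Luc mRNA LNP transfection were incubated 50 min at 37 °C with 0.025 mg/ml resazurin in DMEM/F12 with 10% FCS. Resorufin fluorescence was read at ex 540/em 610 nm, background-subtracted, and expressed as percent of OptiMEM-only controls.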

HepG2 cell line = test: In vitro toxicity study on HepG2 cell line (resazurin, viability and IC50); assay type: cell-based, human; settings: for IC50: Homo sapiens, lipid toxicity, HepG2, 48 h post-treatment, 6.25-800 μM, read-out: IC50 value, μM (on HepG2 cell)
Procedure, shortened: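 HepG2 cells (1000/well) were treated after overnight incubation with lipids at 6.25–800 μM for 48 h. Viability was read by resazurin fluorescence (530/580 nm) after 5 h at 37 °C, relative to ethanol vehicle controls. IC50 values came from concentration-response curves.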

[2] = HepG2 cells, 6.25 μM lipid, 48 h post-treatment, resazurin, relative to ethanol vehicle controls
[3] = HepG2 cells, 12.5 μM lipid, 48 h post-treatment, resazurin, relative to ethanol vehicle controls
[4] = HepG2 cells, 25 μM lipid, 48 h post-treatment, resazurin, relative to ethanol vehicle controls
[5] = HepG2 cells, 50 μM lipid, 48 h post-treatment, resazurin, relative to ethanol vehicle controls
[6] = HepG2 cells, 100 μM lipid, 48 h post-treatment, resazurin, relative to ethanol vehicle controls
[7] = HepG2 cells, 200 μM lipid, 48 h post-treatment, resazurin, relative to ethanol vehicle controls
[8] = HepG2 cells, 400 μM lipid, 48 h post-treatment, resazurin, relative to ethanol vehicle controls
[9] = HepG2 cells, 800 μM lipid, 48 h post-treatment, resazurin, relative to ethanol vehicle controls

SMILES	EE (%) [1]	Cell Viability % (Average metabolic rate over all doses, Resazurin) (HeLa cells)	Viability (%) at different lipid concentrations, mean (HepG2 cell line; [2])	Viability (%) at different lipid concentrations, mean (HepG2 cell line; [3])	Viability (%) at different lipid concentrations, mean (HepG2 cell line; [4])	Viability (%) at different lipid concentrations, mean (HepG2 cell line; [5])	Viability (%) at different lipid concentrations, mean (HepG2 cell line; [6])	Viability (%) at different lipid concentrations, mean (HepG2 cell line; [7])	Viability (%) at different lipid concentrations, mean (HepG2 cell line; [8])	Viability (%) at different lipid concentrations, mean (HepG2 cell line; [9])	IC50 (HepG2 cell line; resazurin)	Viability (%) at different lipid concentrations, mean (HepG2 cell line; human, 48 h, 25 μM)
CCCCC/C=C\C/C=C\CCCCCCCCOC(CCCCCCC/C=C\C/C=C\CCCCC)O[Si](C)(C)OCCCCCCN(C)CCCCO (stereo not shown) [Example 60, (25Z,28Z)-15-((8Z,11Z)-heptadeca-8,11-dien-1-yl)-5,13,13-trimethyl-12,14,16-trioxa-5-aza-13-silatetratriaconta-25,28-dien-1-ol]	84%	88%	100.0%	99.3%	98.4%	107.2%	117.1%	101.1%	73.6%	35.2%	310 µM	
CCCCC/C=C\C/C=C\CCCCCCCCOC(CCCCCCC/C=C\C/C=C\CCCCC)O[Si](C)(C)OCCCCCCN(CCCCO)CCCCO (stereo not shown) [Example 62, (25Z,28Z)-15-((8Z,11Z)-heptadeca-8,11-dien-1-yl)-5-(4-hydroxybutyl)-13,13-dimethyl-12,14,16-trioxa-5-aza-13-silatetratriaconta-25,28-dien-1-ol]	84%	89%	100.4%	110.2%	122.5%	116.9%	68.2%	13.2%	−0.6%	−0.7%	113 µM	
CCCCC/C=C\C/C=C\CCCCCCCCOC(CCCCCCC/C=C\C/C=C\CCCCC)O[Si](C)(C)OCCCCCCN1CCCCC1CO (stereo not shown) [Example 64, (1-((20Z,23Z)-10-((8Z,11Z)-heptadeca-8,11-dien-1-yl)-8,8-dimethyl-7,9,11-trioxa-8-silanonacosa-20,23-dien-1-yl)piperidin-2-yl)methanol]	85%	100%	99.5%	98.7%	100.3%	97.8%	97.8%	91.7%	80.3%	47.4%	775 µM	
CCCCC/C=C\C/C=C\CCCCCCCCOC(CCCCCN(C)CC(O)CO)O[Si](C)(C)OCCCCCCCC/C=C\C/C=C\CCCCC (stereo not shown) [Example 66, (22Z,25Z)-4,12,12-trimethyl-10-(((9Z,12Z)-octadeca-9,12-dien-1-yl)oxy)-11,13-dioxa-4-aza-12-silahentriaconta-22,25-diene-1,2-diol]	82%	91%	100.5%	97.9%	97.2%	96.5%	94.2%	95.5%	86.0%	42.6%	164 µM	
C#CCN(C)CCCCCCO[Si](C)(C)OC(CCCCCCC/C=C\C/C=C\CCCCC)OCCCCCCCC/C=C\C/C=C\CCCCC (stereo not shown) [Example 67, (20Z,23Z)-10-((8Z,11Z)-heptadeca-8,11-dien-1-yl)-N,8,8-trimethyl-N-(prop-2-yn-1-yl)-7,9,11-trioxa-8-silanonacosa-20,23-dien-1-amine]	88%	94%	100.2%	97.1%	99.5%	95.6%	92.6%	24.8%	3.0%	1.7%		
CCCCC/C=C\C/C=C\CCCCCCCCOC(CCCCCCC/C=C\C/C=C\CCCCC)O[Si](C)(C)OCCCCCCN(C)Cc1cn(C2[C@H](O)O[C@H](CO)[C@@H](O)[C@@H]2O)nn1 (stereo partly drawn) [Example 68, (4R,5S,6R)-3-(4-((22Z,25Z)-12-((8Z,11Z)-heptadeca-8,11-dien-1-yl)-2,10,10-trimethyl-9,11,13-trioxa-2-aza-10-silahentriaconta-22,25-dien-1-yl)-1H-1,2,3-triazol-1-yl)-6-(hydroxymethyl)tetrahydro-2H-pyran-2,4,5-triol]	88%	92%	99.4%	97.7%	107.3%	120.2%	117.6%	103.6%	68.1%	12.3%	461 µM	
CCCCC/C=C\C/C=C\CCCCCCCCOC(CCCCCCC/C=C\C/C=C\CCCCC)O[Si](C)(C)OCCCCCCN(CCO)CCN(CCO)CCCCCCO[Si](C)(C)OC(CCCCCCC/C=C\C/C=C\CCCCC)OCCCCCCCC/C=C\C/C=C\CCCCC (stereo not shown) [Example 71, (26Z,29Z)-16-((8Z,11Z)-heptadeca-8,11-dien-1-yl)-3-((20Z,23Z)-10-((8Z,11Z)-heptadeca-8,11-dien-1-yl)-8,8-dimethyl-7,9,11-trioxa-8-silanonacosa-20,23-dien-1-yl)-6-(2-hydroxyethyl)-14,14-dimethyl-13,15,17-trioxa-3,6-diaza-14-silapentatriaconta-26,29-dien-1-ol]	84%	85%	102.71%	102.5%	106.2%	107.61%	93.09%	72.87%	39.19%	9.92%	321 µM	
CCCCCCCC/C=C\CCCCCCCC(OCC(CCCCCCCC)SCCCCC)O[Si](C)(C)OCCCCCCN(CCO)CCO (stereo not shown) [Example 72, (Z)-13-(heptadec-8-en-1-yl)-3-(2-hydroxyethyl)-11,11-dimethyl-16-octyl-10,12,14-trioxa-17-thia-3-aza-11-siladocosan-1-ol]	87%	107%	104.3%	94.1%	102.5%	101.6%	100.3%	96.6%	110.6%	103.0%	> 800 µM	
CCCCCCCC/C=C\CCCCCCCC(OCCCCCCCCCCCC1CCCCC1)O[Si](C)(C)OCCCCCCN(CCO)CCO (stereo not shown) [Example 74, (Z)-25-cyclohexyl-13-(heptadec-8-en-1-yl)-3-(2-hydroxyethyl)-11,11-dimethyl-10,12,14-trioxa-3-aza-11-silapentacosan-1-ol]	87%	107%	101.5%	100.8%		112.5%	121.9%	117.3%	103.1%	93.8%	> 800 µM	107.8%
CCCCCCCC/C=C\CCCCCCCC(OCCC(C)CCCC(C)CCCC(C)CCCC(C)C)O[Si](C)(C)OCCCCCCN(CCO)CCO (stereo not shown) [Example 75, (Z)-13-(heptadec-8-en-1-yl)-3-(2-hydroxyethyl)-11,11,17,21,25,29-hexamethyl-10,12,14-trioxa-3-aza-11-silatriacontan-1-ol]	89%	120%	110.3%	109.2%	105.7%	104.5%	102.8%	112.9%	102.4%	90.2%	> 800 µM	
